Reference: US6875420B1, “Method of ultrasound imaging” (Amersham Health AS, priority 1991, dated 2005)
Read-outs that look alike come from different tables or passages of the source. Each block holds one compound with its values, some of them ahead of it.

What was measured:
[1] = Physical properties of gases: density, solubility in water, diffusivity, molar volume, boiling point; type: physicochemical; conditions: (*) estimated from the known density of homologous fluorocarbons
Source text: Different methods for determining or estimating values for the individual parameters of density, diffusivity, and solubility may be needed depending on the chemical structure of the gas. Values for these parameters may or may not be available from known scientific literature sources such as the Gas Encyclopedia or the tabulations published by the American Chemical Society. Values for the density of most gases are readily available from sources such as the Handbook of Chemistry and Physics. […] Additionally, the solubility in water and molar volume of some gases has been measured with accuracy. In many cases however, calculations for the numerical values for molar volume and solubility may need to be calculated or estimated to provide the data used to determine the value of the Q coefficient for an individual gas by the method described above.
To determine the Q value for several gases, the solubility, molar volume and density of the individual gases are determined and the values are substituted into Equations (7) or (8) above.
This method for estimating the gas solubility of fluorocarbons uses extrapolation of the experimental data of Kabalnov AS, Makarov KN, and Scherbakova OV. […] For a homologous series of non-branched fluorocarbons, the gas solubility may be estimated by increasing or reducing this value by a factor of about 8.0 for each increase or reduction in the number of additional —CF2— groups present in the molecule.
The molar volume of a gas can be estimated by identifying the number and type of atoms that make up the molecule of gas in question. By determining the number and type of atoms present in the molecule and how the individual atoms are bound to each other, known values may be applied for the molecular volume of the individual atoms. By considering the contribution of each individual atom and its frequency of occurrence, one may calculate the total molar volume for a particular gas molecule.

[2] = cited from earlier work; for DENSITY: gas density; for SOLUBILITY: in water, fluorocarbons estimated by extrapolation relative to perfluoro-n-pentane; for boiling point: standard pressure conditions
[3] = Persistence of microbubbles in water at 37° C. observed by ultrasound scan; type: physicochemical
Procedure: The relationship between a calculated Q-value for a given gas and the persistence of microbubbles of that gas was studied to determine what Q-value would be a lower limit for utility as an ultrasound contrast agent. […] Five mL of a 20% sorbitol solution was taken up in a 10 mL syringe connected to a three way stopcock. A 10 mL syringe, containing 2 cubic centimeters of the subject gas (or low boiling liquid, as pertinent) was attached to the syringe containing the sorbitol solution. The sorbitol and gas or liquid are rapidly mixed 25-times to create a suspension of microbubbles or dispersed liquid and then rapidly added to the water. […] Ultrasound scans before, during and after the addition were made with a Hewlett-Packard Model Sonos 500 ultrasound scanner operating at 5 MHz. The time during which the microbubbles could be observed was recorded. […] The experimental Q-values were obtained by dividing the measured persistence of a given gas by the measured persistence for air.

[4] = about 100 micron microbubbles, 20% sorbitol, added to water at 37° C., 5 MHz ultrasound

Compound: FC(=C(F)C(F)(F)F)C(F)(F)F [Octafluoro-2-butene]
DENSITY [1]: 10 (*) kg/m3

Compound: Hexafluoropropane
DENSITY [2]: 10.3 kg/m3

PERSISTENCE of microbubbles [3, 4]: 3.2 min
Compound: CCC [Propane]
DENSITY [2]: 2.02 kg/m3

Compound: CC [Ethane]
DENSITY [2]: 1.05 kg/m3

Compound: FC(F)(F)C(F)(F)C(F)(F)C(F)(F)F [Decafluorobutane]
DENSITY [2]: 11.21 kg/m3 | SOLUBILITY [2]: 32 µmol/L

Compound: FC(F)(F)C(F)(F)F [Hexafluoroethane]
DENSITY [2]: 8.86 kg/m3

Compound: CCCC [n-Butane]
PERSISTENCE of microbubbles [3]: 1.5 min (2.6) | DENSITY [2]: 2.05 kg/m3 | SOLUBILITY [2]: 6696 µmol/L

Compound: FC1(F)C(F)(F)C(F)(F)C1(F)F [Octafluorocyclobutane]
DENSITY [2]: 9.97 kg/m3 | SOLUBILITY [2]: 220 µmol/L

Compound: [Xe] [Xenon]
DENSITY [2]: 5.90 kg/m3

Compound: [Ar] [Argon]
DENSITY [2]: 1.78 kg/m3

Compound: FC(F)(F)C(F)(F)C(F)(F)C(F)(F)C(F)(F)C(F)(F)F [Perfluorohexane, reference compound]
boiling point [2]: 59-60 degrees Centigrade

Compound: FC(F)=C(F)C(F)=C(F)F [Hexafluorobuta-1,3-diene]
DENSITY [1]: 9 (*) kg/m3

Compound: [Ne] [Neon]
DENSITY [2]: 0.90 kg/m3 | SOLUBILITY [2]: 434 µmol/L

PERSISTENCE of microbubbles [3, 4]: > 5760 min
Compound: FC(F)(F)C(F)(F)C(F)(F)C(F)(F)C(F)(F)F [Dodecafluoropentane]
water solubility [2]: 4.0×10^−6 moles per liter | DENSITY [2]: 12.86 kg/m3 | boiling point [2]: 29.5 degrees Centigrade

Compound: O=C=O [Carbon Dioxide]
DENSITY [2]: 1.98 kg/m3 | SOLUBILITY [2]: 33000 µmol/L

Compound: CCOCC [Ethyl ether]
PERSISTENCE of microbubbles [3, 4]: 0.1 min | DENSITY [2]: 2.55 kg/m3 | SOLUBILITY [2]: 977,058 micromoles/liter

Compound: [Kr] [Krypton]
DENSITY [2]: 3.8 kg/m3

Compound: FS(F)(F)(F)(F)F [Sulfur Hexafluoride]
DENSITY [2]: 5.48 kg/m3

Compound: FC(F)(F)C(F)(F)C(F)(F)F [Octafluoropropane]
DENSITY [2]: 10.3 kg/m3 | SOLUBILITY [2]: 260 µmol/L

Compound: FC(F)(F)C#CC(F)(F)F [Hexafluoro-2-butyne]
DENSITY [1]: 9 (*) kg/m3

Compound: CCCCC [Pentane]
PERSISTENCE of microbubbles [3, 4]: 20.6 min | SOLUBILITY [2]: 1674 µmol/L

Compound: [He] [Helium]
PERSISTENCE of microbubbles [3, 4]: 2.0 min | DENSITY [2]: 0.18 kg/m3 | SOLUBILITY [2]: 388 µmol/L
